# Assay results published in ChEMBL document CHEMBL1125401, “CoMFA analysis of the interactions of antipicornavirus compounds in the binding pocket of human rhinovirus-14” (J Med Chem, 1992).
# Tested on: rhinovirus B14
# Test: Compound was evaluated for inhibitory effect against human Rhinovirus-14
# Type: functional
# Settings: not given
row,SMILES,MIC [µM]
1,OCCOCOCc1cc(CCCCCOc2c(Cl)cc(C3=NCCO3)cc2Cl)on1,0.09

# Same assay, conditions: Rhinovirus B; read-out: MIC
row,SMILES,MIC [µM]
1,Cc1cc(-c2nnn(C)n2)cc(C)c1OCCCCCc1cc(COCOCCO)no1,0.06
2,CCC1COC(c2ccc(OCCCCCCCc3cc(C)no3)cc2)=N1 (stereo not given),0.03
3,Cc1cc(CCCCCOc2ccc(C3=NCCO3)cc2Cl)on1,2.41
4,OCCOCOCc1cc(CCCCCOc2c(Cl)cc(C3=NCCO3)cc2Cl)on1,0.06
5,Cc1cc(CCCCCCCOc2ccc(C3=NC(C)CO3)cc2)on1 (stereo not given),0.05
6,Cc1cc(CCCCCOc2c(Cl)cc(C3=NCCO3)cc2Cl)on1 [WIN-54954],1.5

# The remaining lines, values ahead:
row,MIC [µM],SMILES
1,0.51,Cc1cc(CCCCCOc2ccc(C3=NCCO3)cc2)on1
2,0.14,Cc1cc(CCCCCOc2ccc(-c3nc(C)c(C)o3)cc2)on1
3,0.16,Cc1cc(CCCCCCCOc2ccc(C3=NC(C)(C)CO3)cc2)on1
